Data taken from publication PMC4515243, “Phase 1 pharmacokinetic study of the oral pan-AKT inhibitor MK-2206 in Japanese patients with advanced solid tumors” (Cancer Chemotherapy and Pharmacology, 2015).
Where two headings read alike, the source gives them in different places.

Key:
[1] = plasma pharmacokinetics in Japanese patients (HPLC-MS/MS); assay type: in vivo, human; settings: for AUC(0-t) / concentration at 48 h / Cmax / Tmax / half-life: human, plasma, oral; for half-life: read-out: Apparent terminal t½ (converted)
Method: Blood samples for the QOD dosing schedule were collected for PK analyses just before and 2, 4, 6, 10, 24, and 48 h after MK-2206 dosing on days 1 and 27 of Cycle 1. After the final dose of MK-2206 during Cycle 1, blood samples were drawn 96, 144, and 192 h postdose during the 1-week rest period. Samples were also drawn directly before MK-2206 treatment on days 7, 15, and 21. Blood samples for the QW dosing schedule were collected for PK analyses just before and 2, 4, 6, 10, 24, 48, and 96 h after MK-2206 dosing on days 1 and 22 of Cycle 1. After the final dose of MK-2206 in Cycle 1, blood samples were drawn 168 and 240 h postdose during the 1-week rest period. Samples were also drawn directly before MK-2206 treatment on days 8 and 15. The blood samples were centrifuged, and the plasma was separated and stored at −20 °C. The plasma concentrations were analyzed using high-performance liquid chromatography with tandem mass spectroscopy (HPLC–MS/MS) at Merck Research Labs, West Point, PA.
PK differences were observed after exposure to MK-2206 in Japanese patients, compared with non-Japanese patients. Consequently, the PK data were analyzed using t tests and nonparametric Wilcoxon–Mann–Whitney tests because of potential differences in variance. […] No differences in Tmax were observed.

advanced solid tumors = test: tumor response according to RECIST version 1.0 in Japanese patients; assay type: in vivo, human
Method: The anti-tumor activity was evaluated at baseline and every 6 weeks according to the Response Evaluation Criteria In Solid Tumors (RECIST), version 1.0.

AKT1 = system: AKT1; design: method as in ref 3 = [3]; 3. Yan L (2009) MK-2206: a potent oral allosteric AKT inhibitor [abstract #DDT01-1]. In: Proceedings of the 100th annual meeting of the American association for cancer research, Denver, CO, 18–22 Apr; settings: purified recombinant AKT1, in vitro; cited from earlier work
AKT2 = system: AKT2; design: method as in ref 3 = [3]; 3. Yan L (2009) MK-2206: a potent oral allosteric AKT inhibitor [abstract #DDT01-1]. In: Proceedings of the 100th annual meeting of the American association for cancer research, Denver, CO, 18–22 Apr; settings: purified recombinant AKT2, in vitro; cited from earlier work
AKT3 [2] = system: AKT3; design: method as in ref 3 = [3]; 3. Yan L (2009) MK-2206: a potent oral allosteric AKT inhibitor [abstract #DDT01-1]. In: Proceedings of the 100th annual meeting of the American association for cancer research, Denver, CO, 18–22 Apr; settings: purified recombinant AKT3, in vitro; cited from earlier work
AKT1 kinase activity = target: AKT1 kinase activity; design: method as in ref 4 = [4]; 4. Lu W, Defeo-Jones D, Davis L et al (2009) In vitro and in vivo antitumor activities of MK-2206, a new allosteric Akt inhibitor [abstract #3714]. In: Proceedings of the 100th annual meeting of the A; settings: several cancer cell lines; cited from earlier work
AKT3 [3] = system: AKT3; design: method as in ref 4 = [4]; 4. Lu W, Defeo-Jones D, Davis L et al (2009) In vitro and in vivo antitumor activities of MK-2206, a new allosteric Akt inhibitor [abstract #3714]. In: Proceedings of the 100th annual meeting of the A; settings: several cancer cell lines; cited from earlier work
[4] = system: in vivo preclinical models; design: method as in PMID 20571069; settings: single agent; cited from earlier work
[5] = non-Japanese patients; cited from earlier work
AKT pathway = system: AKT pathway; design: method as in PMID 25239610; settings: continuous QOD and intermittent QW dosing, serially obtained tumor and platelet-rich plasma; cited from earlier work
[6] = system: non-Japanese patients with advanced solid tumors; settings: cited from earlier work

Question: For `NC1(c2ccc(-c3nc4ccn5c(=O)[nH]nc5c4cc3-c3ccccc3)cc2)CCC1` [MK-2206], which “Tmax First dose” value ([1]; 45 mg QOD (n = 3), Day 1, median (min–max)) is on record?
Answer: 4.0 (4.0–6.0) h

Question: What about the “Apparent terminal t½” value ([1]; 45 mg QOD (n = 3), harmonic mean ± pseudo SD) of the same compound?
Answer: 79.6 ± 8.5 h

Question: And the “GMR C48-h” value ([1]; 45 mg QOD, geometric mean ratio CDay27/CDay1)?
Answer: 5.02

Question: What about the “Tmax Last dose” value ([1]; 60 mg QOD (n = 9), Day 27, median (min–max)) of the same compound?
Answer: 6.0 (2.0–10.0) h

Question: What about the “GMR C48-h” value ([1]; 60 mg QOD, geometric mean ratio CDay27/CDay1) of the same compound?
Answer: 3.68

Question: And the “GMR C48-h” value ([1]; 135 mg QW, geometric mean ratio CDay22/CDay1)?
Answer: 1.25

Question: And the “GMR C48-h” value ([1]; 200 mg QW, geometric mean ratio CDay22/CDay1)?
Answer: 1.78

Question: And the “mean exposure values (Cmax and AUC), Japanese versus non-Japanese patients” value ([1]; 45- and 60-mg QOD and 200-mg QW cohorts, higher)?
Answer: 1.4–1.9 fold

Question: And the “mean exposure values (Cmax and AUC), Japanese versus non-Japanese patients” value ([1]; 135-mg QW cohort, lower)?
Answer: 0.7–1.3

Question: What about the “AUC, Cmax and Ctrough versus non-Japanese patients” value ([1]; 200-mg QW cohort, P < 0.05) of the same compound?
Answer: significantly higher

Question: What about the AUC(0-t) ([1]; 45 mg, 45 mg QOD (n = 3), Day 1, AUC0–48h, geometric mean (coefficient of variation), read-out: AUCt First dose) of the same compound?
Answer: 1.85 µM·h

Question: What about the concentration at 48 h ([1]; 45 mg, 45 mg QOD (n = 3), Day 1, geometric mean (coefficient of variation), read-out: C48-h First dose) of the same compound?
Answer: 28.8 nM

Question: And the Cmax ([1]; 45 mg, 45 mg QOD (n = 3), Day 1, geometric mean (coefficient of variation), read-out: Cmax First dose)?
Answer: 60.5 nM

Question: What about the AUC(0-t) ([1]; 45 mg, 45 mg QOD (n = 3), Day 27, AUC0–48h, geometric mean (coefficient of variation), read-out: AUCt Last dose) of the same compound?
Answer: 8.49 µM·h

Question: What about the concentration at 48 h ([1]; 45 mg, 45 mg QOD (n = 3), Day 27, geometric mean (coefficient of variation), read-out: C48-h Last dose) of the same compound?
Answer: 144 nM

Question: What about the Cmax ([1]; 45 mg, 45 mg QOD (n = 3), Day 27, geometric mean (coefficient of variation), read-out: Cmax Last dose) of the same compound?
Answer: 214 nM

Question: And the AUC(0-t) ([1]; 60 mg, 60 mg QOD (n = 9), Day 1, AUC0–48h, geometric mean (coefficient of variation), read-out: AUCt First dose)?
Answer: 2.72 µM·h

Question: And the concentration at 48 h ([1]; 60 mg, 60 mg QOD (n = 9), Day 1, geometric mean (coefficient of variation), read-out: C48-h First dose)?
Answer: 40.6 nM

Question: What about the Cmax ([1]; 60 mg, 60 mg QOD (n = 9), Day 1, geometric mean (coefficient of variation), read-out: Cmax First dose) of the same compound?
Answer: 95.9 nM

Question: What about the AUC(0-t) ([1]; 60 mg, 60 mg QOD (n = 9), Day 27, AUC0–48h, geometric mean (coefficient of variation), read-out: AUCt Last dose) of the same compound?
Answer: 9.69 µM·h

Question: What about the concentration at 48 h ([1]; 60 mg, 60 mg QOD (n = 9), Day 27, geometric mean (coefficient of variation), read-out: C48-h Last dose) of the same compound?
Answer: 152 nM

Question: What about the Cmax ([1]; 60 mg, 60 mg QOD (n = 9), Day 27, geometric mean (coefficient of variation), read-out: Cmax Last dose) of the same compound?
Answer: 277 nM

Question: What about the Tmax ([1]; 60 mg, QOD dosing (45 or 60 mg), Japanese patients, read-out: median Tmax) of the same compound?
Answer: 4 to 6 h

Question: What about the AUC(0-t) ([1]; 135 mg, 135 mg QW (n = 3), Day 1, AUC0–168h, geometric mean (coefficient of variation), read-out: AUCt First dose) of the same compound?
Answer: 9.68 µM·h

Question: And the concentration at 48 h ([1]; 135 mg, 135 mg QW (n = 3), Day 1, geometric mean (coefficient of variation), read-out: C48-h First dose)?
Answer: 83.2 nM

Question: And the Cmax ([1]; 135 mg, 135 mg QW (n = 3), Day 1, geometric mean (coefficient of variation), read-out: Cmax First dose)?
Answer: 234 nM

Question: And the AUC(0-t) ([1]; 135 mg, 135 mg QW (n = 3), Day 22, AUC0–168h, geometric mean (coefficient of variation), read-out: AUCt Last dose)?
Answer: 12.8 µM·h

Question: What about the concentration at 48 h ([1]; 135 mg, 135 mg QW (n = 3), Day 22, geometric mean (coefficient of variation), read-out: C48-h Last dose) of the same compound?
Answer: 104 nM

Question: And the Cmax ([1]; 135 mg, 135 mg QW (n = 3), Day 22, geometric mean (coefficient of variation), read-out: Cmax Last dose)?
Answer: 244 nM

Question: And the AUC(0-t) ([1]; 135 mg, 135 mg QW, Day 22, read-out: AUC0–48h)?
Answer: 12.8 µM·h

Question: What about the AUC(0-t) ([1]; 200 mg, 200 mg QW (n = 9), Day 1, AUC0–168h, geometric mean (coefficient of variation), read-out: AUCt First dose) of the same compound?
Answer: 24.3 µM·h

Question: And the concentration at 48 h ([1]; 200 mg, 200 mg QW (n = 9), Day 1, geometric mean (coefficient of variation), read-out: C48-h First dose)?
Answer: 186 nM

Question: What about the Cmax ([1]; 200 mg, 200 mg QW (n = 9), Day 1, geometric mean (coefficient of variation), read-out: Cmax First dose) of the same compound?
Answer: 439 nM

Question: What about the AUC(0-t) ([1]; 200 mg, 200 mg QW (n = 9), Day 22, AUC0–168h, geometric mean (coefficient of variation), read-out: AUCt Last dose) of the same compound?
Answer: 37.6 µM·h

Question: What about the concentration at 48 h ([1]; 200 mg, 200 mg QW (n = 9), Day 22, geometric mean (coefficient of variation), read-out: C48-h Last dose) of the same compound?
Answer: 302 nM

Question: What about the Cmax ([1]; 200 mg, 200 mg QW (n = 9), Day 22, geometric mean (coefficient of variation), read-out: Cmax Last dose) of the same compound?
Answer: 571 nM

Question: What about the Tmax ([1]; 200 mg, 200 mg QW (n = 9), Day 22, median (min–max), read-out: Tmax Last dose) of the same compound?
Answer: 5 h

Question: What about the AUC(0-t) ([1]; 200 mg, 200 mg QW, Day 22, read-out: AUC0–48h) of the same compound?
Answer: 37.6 µM·h

Question: What about the Tmax ([1]; 200 mg, QW dosing (135 and 200 mg), Japanese patients, read-out: median Tmax) of the same compound?
Answer: 4 to 6 h

Question: What about the half-life ([1]; 60 mg QOD (n = 9), harmonic mean ± pseudo SD) of the same compound?
Answer: 71.8 ± 8.9 h

Question: What about the half-life ([1]; 135 mg QW (n = 3), harmonic mean ± pseudo SD) of the same compound?
Answer: 69.3 ± 8.9 h

Question: And the half-life ([1]; 200 mg QW (n = 9), harmonic mean ± pseudo SD)?
Answer: 75.6 ± 9.7 h

Question: And the “tumor responses (RECIST 1.0)” value (advanced solid tumors; 24 patients evaluated)?
Answer: no tumor responses

Question: What about the “patients with SD lasting longer than 4 months” value (advanced solid tumors; all cohorts) of the same compound?
Answer: 6 of the 24

Question: And the “patients with SD lasting longer than 4 months, percent” value (advanced solid tumors; all cohorts)?
Answer: 25%

Question: What about the “patients with SD for 6 months or longer” value (advanced solid tumors; one mediastinal tumor, one esophageal cancer) of the same compound?
Answer: two patients

Question: What about the “patients with stable disease (SD) for 4 months or longer” value (advanced solid tumors; two cervical cancer, one leiomyosarcoma, one breast cancer) of the same compound?
Answer: Four patients

Question: And the IC50 (AKT2)?
Answer: 12 nM

Question: And the IC50 (AKT3 [2])?
Answer: 65 nM

Question: What about the IC50 (AKT1 kinase activity) of the same compound?
Answer: ~20 nM

Question: And the “potency on AKT3 activity relative to AKT1” value (AKT3 [3])?
Answer: two to sixfold less potently

Question: What about the anti-tumor activity [4] of the same compound?
Answer: showed anti-tumor activity

Question: And the “apparent terminal half-life (t½)” value [5]?
Answer: 60 to 90 h

Question: And the terminal elimination half-life [5]?
Answer: 60 to 80 h

Question: What about the AKT pathway blockade (AKT pathway) of the same compound?
Answer: Significant AKT pathway blockade

Question: And the “patients who experienced a DLT” value ([6]; 60 mg QOD, grade 3 skin rash)?
Answer: One of 20

Question: What about the “patients who experienced a DLT, percent” value ([6]; 60 mg QOD) of the same compound?
Answer: 5.0%

Question: And the “patients who experienced DLTs” value ([6]; 200 mg QW, grade 3 skin rash (three), grade 3 dermatitis acneiform (one))?
Answer: Four of 17

Question: And the “patients who experienced DLTs, percent” value ([6]; 200 mg QW)?
Answer: 23.5%

Question: And the “maximum tolerated dose (MTD)” value ([6]; QOD dosing schedule)?
Answer: 60 mg/day

Question: What about the “maximum tolerated dose (MTD)” value ([6]; QW dosing schedule) of the same compound?
Answer: 200 mg/day
